Assay [1] concerns the target Eukaryotic translation initiation factor 4H (Homo sapiens, UniProt Q15056). Nature of the assay: eIF4H inhibition in translation initiation, SAR follow-up (AID 435011). The assay is classed as functional.
In assay [2] the target is Polyadenylate-binding protein 1 (Homo sapiens, UniProt P11940). Nature of the assay: PABP inhibition in translation initiation, SAR follow-up (AID 435018). The format is functional.
Assay [3] has as its system HEK293. Nature of the assay: cells. As to conditions: Homo sapiens.
Assay [4] addresses T1, Nucleotide-binding oligomerization domain-containing protein 1 (Homo sapiens, UniProt Q9Y239).
T1 sequence (Q9Y239 whole entry): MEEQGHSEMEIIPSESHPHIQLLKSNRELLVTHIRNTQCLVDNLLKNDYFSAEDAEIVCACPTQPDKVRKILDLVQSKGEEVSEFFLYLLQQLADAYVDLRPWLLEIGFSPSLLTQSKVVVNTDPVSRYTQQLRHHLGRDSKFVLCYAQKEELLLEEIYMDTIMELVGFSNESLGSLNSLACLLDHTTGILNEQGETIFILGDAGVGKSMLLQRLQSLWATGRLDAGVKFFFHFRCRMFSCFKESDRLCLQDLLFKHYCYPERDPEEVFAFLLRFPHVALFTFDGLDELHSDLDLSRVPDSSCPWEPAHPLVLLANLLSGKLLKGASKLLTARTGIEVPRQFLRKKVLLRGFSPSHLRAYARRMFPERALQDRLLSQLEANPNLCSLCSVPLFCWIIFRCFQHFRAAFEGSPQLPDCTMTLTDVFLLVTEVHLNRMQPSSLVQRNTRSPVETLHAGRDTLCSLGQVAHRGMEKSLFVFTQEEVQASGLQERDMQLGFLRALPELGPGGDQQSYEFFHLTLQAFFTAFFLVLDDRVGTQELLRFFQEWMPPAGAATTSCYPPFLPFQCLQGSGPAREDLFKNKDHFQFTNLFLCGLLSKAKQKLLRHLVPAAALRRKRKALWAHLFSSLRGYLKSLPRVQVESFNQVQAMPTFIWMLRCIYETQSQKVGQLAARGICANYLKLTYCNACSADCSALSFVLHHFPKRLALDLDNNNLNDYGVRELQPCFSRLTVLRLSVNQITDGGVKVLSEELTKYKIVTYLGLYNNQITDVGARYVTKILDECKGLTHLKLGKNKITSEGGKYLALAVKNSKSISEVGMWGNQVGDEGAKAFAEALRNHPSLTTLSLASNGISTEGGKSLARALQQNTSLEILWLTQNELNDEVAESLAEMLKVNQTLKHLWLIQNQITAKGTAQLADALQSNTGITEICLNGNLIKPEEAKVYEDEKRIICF
Description: NOD1 signaling inhibitors, SAR follow-up, revised (AID 2333). The format is functional.

In assay [5] the test system is HEK293. Description: cells. As to conditions: Homo sapiens. The assay is classed as functional, cell-based.
The subject of assay [6] is HEK293. Nature of the assay: NOD2 signaling inhibitors in MDP-stimulated cells, cell-based, uHTS, luminescence (AID 2001). The assay is classed as functional. As to conditions: Homo sapiens.
In assay [7] the test system is HEK293. Description: NOD1 signaling inhibitors, primary screen, cell-based, luminescence, uHTS (AID 1578). The format is functional. As to conditions: Homo sapiens.
A further assay has as its target Tumor necrosis factor (Homo sapiens, UniProt P01375). Description: TNFa-triggered NF-kB activation inhibitors, SAR follow-up, cell-based, revised (AID 2337). The assay is classed as functional.
The subject of assay [8] is HEK293. Nature of the assay: cells. The assay is classed as functional, cell-based. The settings on record: Homo sapiens. This is another data set of the same source.
Assay [9] is described as follows: cells. The format is functional, cell-based.
For assay [10], the target named is Nucleotide-binding oligomerization domain-containing protein 2 (Homo sapiens, UniProt Q9HC29). Nature of the assay: NOD2 signaling inhibitors, cell-based, luminescence, uHTS, HEK293 (AID 1566). The assay is classed as functional.
Assay [11] concerns HEK293. Description: cells. The format is functional, cell-based. As to conditions: Homo sapiens. This is another data set of the same source.
A short description of assay [12]: cells. The format is functional, cell-based. The source holds these as a separate data set.
The next assay has as its system INS1. Nature of the assay: beta cell apoptosis inhibitors, cytokine rescue, dose response, luminescence, retest (AID 449756).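 Note: cell death triggered by IL-1 beta plus TNF-alpha plus IFN-gamma mixture; protective hits raise ATP signal compared with cytokine alone wells.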 The format is functional, cell-based. As to conditions: Rattus norvegicus.
Assay [13] can be described thus: Luminescence Cell-Based Dose Retest to Confirm Inhibitors of Cancer Stem Cells. [Related pubchem assays (depositor defined):AID2717, AID2721]. The format is functional. As to conditions: Homo sapiens.
The next assay addresses SUMO-activating enzyme (Homo sapiens, UniProt Q9UBT2). Description: SUMOylation inhibitor hit validation, confirmation, SUMOylation inhibitor project, biochemical, AlphaScreen (AID 2018). The assay is classed as functional. Background: In Alpha technology, singlet oxygen from a donor bead excites a nearby acceptor bead.
In assay [14] the target is T2, Kappa-type opioid receptor (Homo sapiens, UniProt P41145). The assay is classed as functional.
T2 sequence (P41145 whole entry): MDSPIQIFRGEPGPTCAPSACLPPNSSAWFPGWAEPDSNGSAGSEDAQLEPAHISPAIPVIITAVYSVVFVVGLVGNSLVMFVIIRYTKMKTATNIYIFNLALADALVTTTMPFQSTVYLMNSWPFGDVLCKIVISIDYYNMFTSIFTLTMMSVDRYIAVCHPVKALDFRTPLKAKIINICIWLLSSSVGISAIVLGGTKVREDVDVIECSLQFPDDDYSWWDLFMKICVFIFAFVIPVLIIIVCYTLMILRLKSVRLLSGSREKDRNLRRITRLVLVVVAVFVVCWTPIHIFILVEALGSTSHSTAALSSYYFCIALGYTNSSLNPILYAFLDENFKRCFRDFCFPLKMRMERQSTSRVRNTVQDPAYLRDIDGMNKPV
The next assay concerns the target Beta-galactosidase (Escherichia coli, UniProt Q8VNN2). The format is functional.
Assay [15] has as its target T2, Kappa-type opioid receptor. The format is functional. The source holds these as a separate data set.
Another assay concerns the target T3, Protein skinhead-1 (Caenorhabditis elegans, UniProt P34707).
T3 sequence (P34707 whole entry): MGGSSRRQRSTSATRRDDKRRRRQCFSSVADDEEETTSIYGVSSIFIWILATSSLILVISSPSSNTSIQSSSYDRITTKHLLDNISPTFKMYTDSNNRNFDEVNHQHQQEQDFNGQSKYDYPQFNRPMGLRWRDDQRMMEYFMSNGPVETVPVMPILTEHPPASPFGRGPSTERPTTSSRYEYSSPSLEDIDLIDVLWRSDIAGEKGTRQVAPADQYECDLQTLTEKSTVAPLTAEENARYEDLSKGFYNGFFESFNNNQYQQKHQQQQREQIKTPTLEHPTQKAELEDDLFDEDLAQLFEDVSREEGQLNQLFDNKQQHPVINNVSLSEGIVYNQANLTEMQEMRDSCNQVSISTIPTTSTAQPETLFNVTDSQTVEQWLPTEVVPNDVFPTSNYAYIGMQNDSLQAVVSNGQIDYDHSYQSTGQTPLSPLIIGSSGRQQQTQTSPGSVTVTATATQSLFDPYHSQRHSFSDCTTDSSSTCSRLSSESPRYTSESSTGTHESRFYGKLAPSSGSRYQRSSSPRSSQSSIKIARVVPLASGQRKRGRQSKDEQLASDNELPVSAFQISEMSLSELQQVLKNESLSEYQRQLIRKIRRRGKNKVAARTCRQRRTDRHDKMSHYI
The assay is classed as functional.

Assay [16] deals with Peroxisome proliferator-activated receptor gamma/Nuclear receptor coactivator 3 (Homo sapiens, UniProt P37231). Description: TR-FRET dose response biochemical High Throughput Screening assay for agonists of the steroid receptor coactivator 3 (SRC-3) recruitment by the peroxisome proliferator-activated receptor gamma (PPAR gamma): non-selective agonists. [Related pubchem assays: 1301 (Confirmation screen.), 1048 (Primary screen.)]. The assay is classed as functional. (Time-resolved FRET reads energy transfer from a long-lived donor to a nearby acceptor.)

Assay [17] addresses Peroxisome proliferator-activated receptor gamma/Nuclear receptor coactivator 2 (Homo sapiens, UniProt P37231). Nature of the assay: TR-FRET dose response biochemical High Throughput Screening assay for agonists of the steroid receptor coactivator 2 (SRC-2) recruitment by the peroxisome proliferator-activated receptor gamma (PPAR gamma): non-selective agonists. [Related pubchem assays: 1297, 1032 ]. The format is functional.

Assay [18] concerns the target Peroxisome proliferator-activated receptor gamma/Nuclear receptor coactivator 1 (Homo sapiens, UniProt P37231). Description: TR-FRET dose response biochemical High Throughput Screening assay for agonists of the steroid receptor coactivator 1 (SRC-1) recruitment by the peroxisome proliferator-activated receptor gamma (PPAR gamma): non-selective agonists. [Related pubchem assays (depositor defined):AID1300, AID1808, AID504735, AID631]. The assay is classed as protein assay.

The subject of a further assay is BJ. Nature of the assay: cytotoxicity toward Ras-transformed BJeLR fibroblasts, dose response, cell-based, alamar blue fluorescence, cherrypicked samples (AID 2631).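 Note: confirmatory dose-response assay in RAS-dependent BJ fibroblasts engineered with TERT, LT and ST, with cytotoxicity read by fluorescence.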 The settings on record: Homo sapiens. The format is functional. In general terms: Alamar Blue is a resazurin reagent that responds to reducing activity.
Assay [19] deals with Heat shock protein HSP 90-alpha (Homo sapiens, UniProt P07900). The assay is classed as functional, organism-based.
In another assay the target is Nonstructural protein 1 (Influenza A virus, UniProt Q194T2). The format is functional, Influenza A virus (A/California/07/2009(H1N1)).
Sequence of Nonstructural protein 1 (Q194T2 whole entry): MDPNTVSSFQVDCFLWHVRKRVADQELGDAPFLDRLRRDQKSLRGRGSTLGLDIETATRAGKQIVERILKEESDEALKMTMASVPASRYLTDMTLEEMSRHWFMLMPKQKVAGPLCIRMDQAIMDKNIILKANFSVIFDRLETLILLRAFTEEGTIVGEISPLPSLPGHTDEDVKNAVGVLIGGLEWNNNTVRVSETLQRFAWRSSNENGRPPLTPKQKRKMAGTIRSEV
For assay [20], the target named is T4, Rac GTPase-activating protein 1 (Homo sapiens, UniProt Q9H0H5).
T4 sequence (Q9H0H5 whole entry): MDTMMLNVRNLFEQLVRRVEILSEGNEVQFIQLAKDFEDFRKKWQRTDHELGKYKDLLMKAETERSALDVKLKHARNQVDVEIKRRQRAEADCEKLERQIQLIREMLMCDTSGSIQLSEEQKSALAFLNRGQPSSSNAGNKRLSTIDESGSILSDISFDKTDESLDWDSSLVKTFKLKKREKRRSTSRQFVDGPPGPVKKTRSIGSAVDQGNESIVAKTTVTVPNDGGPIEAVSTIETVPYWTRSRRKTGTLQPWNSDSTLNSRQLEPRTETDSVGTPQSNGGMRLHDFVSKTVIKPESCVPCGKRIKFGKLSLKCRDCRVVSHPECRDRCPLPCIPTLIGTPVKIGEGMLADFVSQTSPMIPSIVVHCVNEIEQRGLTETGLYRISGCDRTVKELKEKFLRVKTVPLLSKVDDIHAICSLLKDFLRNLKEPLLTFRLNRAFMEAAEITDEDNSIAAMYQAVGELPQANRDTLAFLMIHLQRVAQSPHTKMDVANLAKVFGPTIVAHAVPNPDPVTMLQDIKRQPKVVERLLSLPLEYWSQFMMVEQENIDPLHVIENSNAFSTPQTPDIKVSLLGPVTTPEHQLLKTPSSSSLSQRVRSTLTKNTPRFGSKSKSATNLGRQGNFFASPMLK
Nature of the assay: MgcRacGAP GTPase-activating activity inhibitors, confirmation, biochemical, ADP Hunter fluorescence, primary and confirmatory (AID 624330). The format is functional.

Active and inactive are the calls of the source.

Sequence of Polyadenylate-binding protein 1 (P11940 whole entry): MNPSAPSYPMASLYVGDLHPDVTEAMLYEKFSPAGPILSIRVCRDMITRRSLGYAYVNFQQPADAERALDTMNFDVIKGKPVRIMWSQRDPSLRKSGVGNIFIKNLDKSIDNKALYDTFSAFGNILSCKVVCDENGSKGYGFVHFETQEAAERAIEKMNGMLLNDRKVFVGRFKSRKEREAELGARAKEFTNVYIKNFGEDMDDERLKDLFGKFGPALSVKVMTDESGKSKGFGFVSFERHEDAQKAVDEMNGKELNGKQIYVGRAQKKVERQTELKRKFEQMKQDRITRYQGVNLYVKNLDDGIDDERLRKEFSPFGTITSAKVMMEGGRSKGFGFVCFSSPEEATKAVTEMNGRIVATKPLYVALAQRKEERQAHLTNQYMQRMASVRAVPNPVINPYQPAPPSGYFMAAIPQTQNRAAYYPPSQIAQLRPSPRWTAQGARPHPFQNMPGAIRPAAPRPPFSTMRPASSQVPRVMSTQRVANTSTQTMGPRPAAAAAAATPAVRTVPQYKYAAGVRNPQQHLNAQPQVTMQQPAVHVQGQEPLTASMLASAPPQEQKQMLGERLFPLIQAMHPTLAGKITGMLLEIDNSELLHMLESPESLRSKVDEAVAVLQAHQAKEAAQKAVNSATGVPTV
Sequence of Peroxisome proliferator-activated receptor gamma/Nuclear receptor coactivator 1 (P37231 whole entry): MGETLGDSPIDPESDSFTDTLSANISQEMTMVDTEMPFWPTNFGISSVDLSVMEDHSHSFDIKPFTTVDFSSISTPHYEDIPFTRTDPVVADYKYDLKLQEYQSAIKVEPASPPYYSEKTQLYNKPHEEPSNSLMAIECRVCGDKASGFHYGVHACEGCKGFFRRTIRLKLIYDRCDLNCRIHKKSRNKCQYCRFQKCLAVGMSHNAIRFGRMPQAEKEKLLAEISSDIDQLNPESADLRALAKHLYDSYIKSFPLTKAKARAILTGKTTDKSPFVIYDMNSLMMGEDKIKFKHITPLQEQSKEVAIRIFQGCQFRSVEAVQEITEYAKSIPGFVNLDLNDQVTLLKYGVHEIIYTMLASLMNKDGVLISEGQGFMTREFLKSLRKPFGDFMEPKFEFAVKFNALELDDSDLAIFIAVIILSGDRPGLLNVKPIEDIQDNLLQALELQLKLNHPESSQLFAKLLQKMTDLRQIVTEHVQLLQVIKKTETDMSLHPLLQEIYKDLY
Sequence of Peroxisome proliferator-activated receptor gamma/Nuclear receptor coactivator 1 (Q15788 whole entry, further chain): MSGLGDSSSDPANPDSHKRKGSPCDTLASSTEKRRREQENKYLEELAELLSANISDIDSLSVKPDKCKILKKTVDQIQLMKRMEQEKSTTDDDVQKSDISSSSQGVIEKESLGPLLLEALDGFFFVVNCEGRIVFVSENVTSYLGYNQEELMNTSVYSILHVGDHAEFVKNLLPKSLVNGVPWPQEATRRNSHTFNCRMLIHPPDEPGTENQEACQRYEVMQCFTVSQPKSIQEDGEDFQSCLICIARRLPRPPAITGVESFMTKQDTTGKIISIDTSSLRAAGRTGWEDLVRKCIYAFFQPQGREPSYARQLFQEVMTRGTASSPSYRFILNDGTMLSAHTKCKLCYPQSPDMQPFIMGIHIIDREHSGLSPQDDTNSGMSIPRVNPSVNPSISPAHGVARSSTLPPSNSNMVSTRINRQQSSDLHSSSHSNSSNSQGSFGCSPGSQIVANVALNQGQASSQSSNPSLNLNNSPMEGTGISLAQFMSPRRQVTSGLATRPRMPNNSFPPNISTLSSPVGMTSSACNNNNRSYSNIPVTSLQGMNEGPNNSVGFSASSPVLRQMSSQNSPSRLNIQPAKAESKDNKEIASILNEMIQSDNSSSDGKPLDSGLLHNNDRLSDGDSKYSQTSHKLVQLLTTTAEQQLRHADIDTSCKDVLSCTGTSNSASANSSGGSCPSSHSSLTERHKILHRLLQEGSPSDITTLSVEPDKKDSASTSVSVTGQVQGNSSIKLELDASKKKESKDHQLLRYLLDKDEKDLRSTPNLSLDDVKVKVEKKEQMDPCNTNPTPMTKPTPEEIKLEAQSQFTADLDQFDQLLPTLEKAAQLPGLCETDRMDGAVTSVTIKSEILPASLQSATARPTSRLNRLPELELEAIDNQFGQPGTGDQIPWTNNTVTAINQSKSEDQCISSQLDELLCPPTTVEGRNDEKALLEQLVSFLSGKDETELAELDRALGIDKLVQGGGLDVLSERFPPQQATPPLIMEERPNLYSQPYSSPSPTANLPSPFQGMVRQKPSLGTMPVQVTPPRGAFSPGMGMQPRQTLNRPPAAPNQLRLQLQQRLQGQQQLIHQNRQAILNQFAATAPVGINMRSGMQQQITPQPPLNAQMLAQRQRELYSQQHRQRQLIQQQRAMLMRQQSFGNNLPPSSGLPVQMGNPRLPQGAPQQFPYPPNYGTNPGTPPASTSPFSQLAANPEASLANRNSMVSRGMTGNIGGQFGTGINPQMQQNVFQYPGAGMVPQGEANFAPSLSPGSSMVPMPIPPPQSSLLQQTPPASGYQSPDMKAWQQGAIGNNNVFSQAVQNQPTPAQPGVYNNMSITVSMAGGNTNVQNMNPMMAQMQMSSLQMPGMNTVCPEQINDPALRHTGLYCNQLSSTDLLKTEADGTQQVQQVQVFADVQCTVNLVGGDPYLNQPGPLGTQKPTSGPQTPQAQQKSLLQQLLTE
Sequence of Beta-galactosidase (Q8VNN2 whole entry): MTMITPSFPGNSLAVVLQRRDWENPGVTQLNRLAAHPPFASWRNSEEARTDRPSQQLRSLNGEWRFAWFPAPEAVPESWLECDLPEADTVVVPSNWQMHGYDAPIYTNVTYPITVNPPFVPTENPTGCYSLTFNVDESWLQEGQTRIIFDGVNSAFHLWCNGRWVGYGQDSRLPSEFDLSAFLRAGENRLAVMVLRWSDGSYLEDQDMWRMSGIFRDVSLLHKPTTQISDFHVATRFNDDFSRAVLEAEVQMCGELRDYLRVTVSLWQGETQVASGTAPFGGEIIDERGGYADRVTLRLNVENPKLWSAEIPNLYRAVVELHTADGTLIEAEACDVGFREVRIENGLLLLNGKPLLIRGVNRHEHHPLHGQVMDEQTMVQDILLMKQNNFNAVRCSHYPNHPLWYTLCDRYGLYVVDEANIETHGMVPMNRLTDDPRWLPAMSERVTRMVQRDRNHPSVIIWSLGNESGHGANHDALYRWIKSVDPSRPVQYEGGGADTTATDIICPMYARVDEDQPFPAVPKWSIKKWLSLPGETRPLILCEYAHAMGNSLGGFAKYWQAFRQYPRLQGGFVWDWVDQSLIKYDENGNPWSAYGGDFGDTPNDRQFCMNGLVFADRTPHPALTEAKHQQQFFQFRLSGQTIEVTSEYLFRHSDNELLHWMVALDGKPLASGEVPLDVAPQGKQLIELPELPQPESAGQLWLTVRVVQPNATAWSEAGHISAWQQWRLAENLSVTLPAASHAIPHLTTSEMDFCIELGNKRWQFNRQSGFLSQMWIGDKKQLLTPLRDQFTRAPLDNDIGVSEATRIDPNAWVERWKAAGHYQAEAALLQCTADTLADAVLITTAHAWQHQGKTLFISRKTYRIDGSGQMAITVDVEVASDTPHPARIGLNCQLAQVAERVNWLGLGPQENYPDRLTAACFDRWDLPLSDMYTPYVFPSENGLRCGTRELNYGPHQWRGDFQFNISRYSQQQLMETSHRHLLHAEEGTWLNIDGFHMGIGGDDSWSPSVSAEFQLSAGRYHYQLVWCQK
Sequence of Tumor necrosis factor (P01375 whole entry): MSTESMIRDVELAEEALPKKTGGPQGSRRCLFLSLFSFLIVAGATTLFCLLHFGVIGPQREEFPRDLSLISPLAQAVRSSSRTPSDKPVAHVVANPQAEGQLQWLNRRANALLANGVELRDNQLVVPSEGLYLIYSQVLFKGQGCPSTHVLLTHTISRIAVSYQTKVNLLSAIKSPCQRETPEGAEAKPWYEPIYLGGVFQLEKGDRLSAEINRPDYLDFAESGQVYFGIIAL

Usually IC50 stands for the concentration that inhibits the measured activity by half. Take `O=C(Nc1ccc(Cl)cc1)C1CCN(C(=O)c2cccs2)CC1`: the IC50 in [1] and in [2] was > 100 µM (inactive) throughout.

Turning to `COc1ccccc1CCNC(=O)CSc1ccc(-c2ccco2)nn1`, the IC50 in [1] and in [2] was > 100 µM (inactive) throughout.

As a reminder, the EC50 is the concentration at which the effect is half-maximal. For the molecule `Cc1oc(-c2cc(F)ccc2F)nc1CN1CCN(c2ncnc3ccccc23)CC1`, the IC50 was > 20 µM (inactive) with HEK293 [3]; 6.29 µM (active) in [4]; 19.9 µM (active) with HEK293 [5]; 8.53 µM (active) in the assay on HEK293 [6]; 5.97 µM (active) on Tumor necrosis factor; 11.1 µM (active) in the assay with HEK293 [8]. Besides, the EC50 with HEK293 [7] is 4.42 µM (active).

As usually defined, the AC50 is the midpoint of the concentration-response curve, whichever way the signal moves. With `CN(Cc1cccnc1)C(=O)c1cc(COc2ccc3ncccc3c2)on1`, the IC50 was > 20 µM (inactive) in the assay on HEK293 [3]; > 20 µM (inactive) with HEK293 [11]; 2.92 µM (active) in assay [4]; 17.3 µM (active) with HEK293 [5]; 8.18 µM (active) with HEK293 [6]; 5.24 µM (active) on Tumor necrosis factor. In addition, the IC50 in the assay on HEK293 [8] is 6.23 µM (active). For the same molecule, the EC50 in “cells [9]” is > 350 µM (not active); in [10] it was 9.78 µM (active); in “cells [12]”, > 350 µM (not active); with HEK293 [7] it was 3.64 µM (active). The half-maximal activity concentration (AC50) in the assay on INS1 was 3.92 µM (active).

For `CCc1ccc(NC(=O)C(CC)Sc2nc3cc4c(cc3c(=O)n2Cc2ccco2)OCO4)cc1` (configuration not stated), the half-maximal activity concentration (AC50) in [13] is 8.32 µM (active). Besides, the IC50 at SUMO-activating enzyme is 48.9 µM (active).

Turning to `CC(=O)NS(=O)(=O)c1ccc(Nc2ccc([N+](=O)[O-])c3nonc23)cc1`, the IC50 was 13.9 µM (active) in assay [14], more than 32 µM in assay [15] and 34.7 µM (active) at Protein skinhead-1. The EC50 on Beta-galactosidase was 18.1 µM (active).

For `O=C(CSc1ncnc2c1oc1ccccc12)NCc1ccco1`, the results for the EC50 in assay [16], in assay [17] and in assay [18] were > 79.4 µM (not active), 11.5 µM (not active) and 22.6 µM (inactive), respectively.

Regarding `O=C(CSc1ncnc2c1oc1ccccc12)Nc1ccccc1F`, the EC50 is 91.1 µM (not active) in assay [16], 59.2 µM (not active) in assay [17] and 63.3 µM (inactive) in assay [18].

For `COc1ccccc1NC(=O)COC(=O)c1ccc(NC(N)=O)cc1`, the IC50 in [1] is 17.9 µM (active); in [2], 69.4 µM (active).

As for `C/C(=N\Nc1ncc(Cl)cc1Cl)c1ccccn1`, the concentration for half-maximal inhibition (IC50) in [14] was 3.47 µM (active); in assay [15] it was more than 32 µM; at Nonstructural protein 1 it was 12 µM (active). Besides, the 50% effective concentration (EC50) is 0.0209 µM (active) in the assay with BJ and > 31.5 µM (inactive) at Beta-galactosidase. Moreover, the half-maximal activity concentration (AC50) in [19] was 1.84 µM (active).

`Clc1cccc(-c2ccc(/C=N/c3ccc(N4CCOCC4)cc3)o2)c1Cl`: the values for the half-maximal effective concentration (EC50) in assay [16], in [17] and in assay [18] were > 79.4 µM (not active), 30.5 µM (not active) and 49 µM (inactive), respectively. Besides, the IC50 in assay [20] is 14.5 µM (active).

For the origin of these results see ChEMBL document CHEMBL1201862, “PubChem BioAssay data set” (2004).
